Test results taken from PubChem BioAssay (NCI).
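Results reflect a 48-hour exposure of cells in 96-well plates to compound at five concentrations. The concentration for full growth arrest is given as TGI.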

How the values were obtained:
Assay in all cases: growth of human tumour cells (NCI), 48 h
SK-MEL-28 melanoma = tested on: SK-MEL-28 melanoma
LOX IMVI melanoma = tested on: LOX IMVI melanoma
A549 NSCLC = tested on: A549 NSCLC
EKVX NSCLC = tested on: EKVX NSCLC
NCI-H522 lung = tested on: NCI-H522 lung
NCI-H23 lung = tested on: NCI-H23 lung
OVCAR-5 ovarian = tested on: OVCAR-5 ovarian
HL-60(TB) leukemia = tested on: HL-60(TB) leukemia
MALME-3M melanoma = tested on: MALME-3M melanoma
SNB-19 CNS = tested on: SNB-19 CNS
SF-268 CNS = tested on: SF-268 CNS
OVCAR-3 ovarian = tested on: OVCAR-3 ovarian

Row | SMILES | TGI (SK-MEL-28 melanoma) [µM] | TGI (LOX IMVI melanoma) [µM] | TGI (A549 NSCLC) [µM] | TGI (EKVX NSCLC) [µM] | TGI (NCI-H522 lung) [µM] | TGI (NCI-H23 lung) [µM] | TGI (OVCAR-5 ovarian) [µM] | TGI (HL-60(TB) leukemia) [µM] | TGI (MALME-3M melanoma) [µM] | TGI (SNB-19 CNS) [µM] | TGI (SF-268 CNS) [µM] | TGI (OVCAR-3 ovarian) [µM]
1 | Cc1ccc(C[P+]2(c3ccccc3)CCCCC2)cc1 | > 100 | > 100 | > 100 | > 100 | > 100 | > 100 | > 100 | 33.6 | > 100 | > 100 | – | –
2 | Cc1ccc(S(=O)(=O)N/N=c2\c(C)c(C3=NS(=O)(=O)c4cc(S(N)(=O)=O)c(Cl)cc4N3)oc3c(Cl)cc(Cl)cc23)cc1 | > 100 | > 100 | > 100 | > 100 | – | > 100 | > 100 | > 100 | > 100 | > 100 | > 100 | > 100
3 | COc1cc(N/N=C/C#N)cc(OC)c1OC | > 10 | 3.24 | > 10 | > 10 | 3.68 | > 10 | > 10 | 5.64 | > 10 | > 10 | > 10 | > 10
4 | O=C1Nc2ccccc2S/C1=C\c1ccccc1C(F)(F)F | > 100 | > 100 | > 100 | > 100 | > 100 | – | > 100 | > 100 | > 100 | > 100 | > 100 | > 100
5 | CC1CCC(O)(C(C)(C(=O)O)c2ccccc2)CC1 (stereo not drawn) | > 100 | > 100 | > 100 | > 100 | > 100 | > 100 | > 100 | > 100 | > 100 | > 100 | > 100 | > 100
6 | Nc1nncc2c1ccn2C1OC(CO)C(O)C1O (stereo not drawn) | > 100 | > 100 | > 100 | > 100 | – | > 100 | > 100 | > 100 | > 100 | > 100 | > 100 | > 100
7 | O=C(O)NCc1ccccc1 (tested in a mixture with another compound) | > 100 | > 100 | > 100 | > 85.1 | 96.7 | > 100 | > 100 | 48.9 | 85.9 | > 100 | > 100 | > 96.1
8 | C=C1CC[C@@H](Br)C(C)(C)[C@]12CCC(C)(O)C(Cl)C2 (stereo partly drawn) | 40.2 | 35.2 | 45.2 | 40.2 | 32 | 64.4 | 36.9 | 42.2 | 86.2 | 43.4 | 32.6 | 35.8
9 | Cc1cc2c(cc1C)[n+](=O)c(C#N)c(Cl)n2[O-] | 42.5 | 39.2 | 80.8 | 28.5 | 26.3 | 25.1 | 25.8 | 84.3 | 30 | > 100 | > 100 | 20.6
10 | CCC1CN2CCC1CC2 (stereo not drawn) | > 100 | > 100 | > 100 | > 100 | > 100 | > 100 | > 100 | > 100 | > 100 | > 100 | > 100 | > 100
11 | CC(=O)O[C@H]1CC[C@@]2(C)C(=CC[C@@H]3[C@@H]2CC[C@]2(C)Nc4c(cnn4S(C)(=O)=O)C[C@@H]32)C1 | > 100 | – | – | – | > 100 | > 100 | > 100 | 71.3 | > 100 | > 100 | – | > 100
